# Measured values: patent publication US20100260680A1, “NOVEL BONE MASS INCREASING AGENT” (ORIENTAL YEAST CO., LTD., priority 2007, published 2010)
# Bridges are numbered along the chain shown (N, C = ends). Where no end group is shown, it is not given here.
# T1: RANKL (Homo sapiens, UniProt O14788)
# T1 sequence (O14788 140-317 limits assumed): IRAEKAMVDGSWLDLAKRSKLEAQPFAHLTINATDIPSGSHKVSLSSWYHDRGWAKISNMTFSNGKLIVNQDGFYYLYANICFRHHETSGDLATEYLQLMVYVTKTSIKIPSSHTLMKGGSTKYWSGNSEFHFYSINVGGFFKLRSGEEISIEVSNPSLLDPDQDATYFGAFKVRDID
# What was measured:
# MC3T3-E1 cells = experiment: ALP activity determination in MC3T3-E1 cells; assay type: cell-based, mouse; conditions: for inhibition of ALP activity enhancement caused by BMP-2: 100 ng/ml BMP-2; for inhibition of ALP activity enhancement caused by peptide D: 200 μM peptide D
# Method: Seven days after differentiation, the culture supernatant was removed from each plate and the cells were fixed with an acetone/ethanol solution. The ALP activity was determined using p-nitrophenyl phosphate as a substrate. Specifically, a carbonate buffer (5 mM MgCl2, 50 mM NaHCO3) containing p-nitrophenyl phosphate (Nacalai) (1 mg/mL) was added to each well (100 μL/well), followed by incubation at 37° C. Then, the OD value at 405 nm was determined with the use of a microplate reader (BMG Labtech) for each well.
# Cells mixed with 10% FBS+αMEM (GIBCO) were seeded on a 96-well plate (8×10^3 cells/well) and a 48-well plate (2×10^4 cells/well). The culture supernatant of each plate was replaced with 10% FBS+αMEM containing 5 mM β glycerophosphoric acid (SIGMA)+10 μg/mL sodium ascorbate (SIGMA) 48 hours later. Then, the medium was replaced with new medium every 3 or 4 days. As a control, MC3T3-E1 was cultured with the use of 10% FBS+αMEM as a maintenance medium. Upon medium replacement, a peptide was added to each plate at a concentration of 300 μM, ALP activity determination and alizarin red S staining were carried out by the method described in Example 1 on Days 7 and 21.
# MC3T3-E1 cells mixed with 10% FBS+αMEM (SIGMA) were seeded on a 96-well plate (1.5×10^4 cells/well). After 12 hours, the medium was removed therefrom and a medium containing an SB203580 p38 inhibitor (Calbiochem) was added thereto. […] Then, ALP activity determination was carried out by the method described in Example 1.
# Similarly, rhDkk-1 (R&D) was added as a Wnt antagonist at concentrations of 0.25, 0.5, and 1 μg/ml. After 1 hour, 200 μM peptide D was added thereto, followed by culture for 5 days. Then, ALP activity determination was carried out by the method described in Example 1.
# In addition, as described above, BMPR-IA (R&D) was added as a BMP antagonist at concentrations of 0.25 and 1 μg/ml. […] Then, ALP activity determination was carried out by the method described in Example 1. […] Based on the above results, it was likely that actions of peptide D depend on BMP induction or BMP produced constantly and spontaneously by cells.
# MC3T3-E1 cells mixed with 10% FBS+α MEM (SIGMA) were seeded on a 96-well plate (1.5×10^4 cells/well).
# Further, peptide D and peptide E were compared with each other in terms of ALP activity enhancement actions in MC3T3-E1 cells. Peptide D and peptide E were used at concentrations of 25, 50, 100, and 200 μM for culture under the conditions described in Example 14, followed by determination of ALP activity by the method described in Example 1.
# MC3T3-E1 cells (mouse osteoblast precursor cells) mixed with 10% FBS+αMEM (SIGMA) were seeded on a 96-well plate (2×10^4 cells/well). After cell adhesion, the medium was removed therefrom, followed by ALP activity determination in the cases involving the addition of 50 and 150 μM peptide D (acetate and hydrochloride). […] On Day 5 after the addition of the individual factors, the culture supernatant was removed, followed by ALP activity determination by the method described in Example 1.
# MC3T3-E1 cells (mouse osteoblast precursor cells) mixed with 10% FBS+αMEM (SIGMA) were seeded on a 96-well plate (2×10^4 cells/well). After cell adhesion had taken place, the medium was removed therefrom, followed by determination of ALP activity in the cases involving the mixing of 5 ng/mLBMP-2 (produced by CHO cells) with 6.25, 12.5, 25, 50, and 100 μM synthetic peptide D. On Day 5 after the addition of the individual factors, the culture supernatant was removed, followed by ALP activity determination by the method described in Example 1.
# At the end of the experiment, synergistic effects of synthetic peptide D in the form of acetate and BMP-4 (R&D) were also examined. MC3T3-E1 cells (mouse osteoblast precursor cells) mixed with 10% FBS+αMEM (SIGMA) were seeded on a 96-well plate (2×10^4 cells/well). […]
# RAW264 cells = experiment: TRAP activity in RAW264 cells with GST-RANKL; assay type: cell-based
# Method: Peptide E (SEQ ID NO: 16) was prepared from peptide D with the substitution of a single amino acid. TRAP activity and ALP activity were determined to compare peptide D and peptide E in terms of effects of causing osteoclast differentiation and osteoblast differentiation. RAW264 cells mixed with 10% FBS+αMEM (SIGMA) were seeded on a 96-well plate (2×10^3 cells/well). After confirmation of cell adhesion, the medium was replaced with 10% FBS+αMEM containing 10 nM GST-RANKL (Oriental Yeast Co., Ltd.). Peptide D and peptide E were separately added thereto at concentrations of 25, 50, 100, and 200 μM, followed by culture for 4 days. After the termination of culture, 100 μL acetone/ethanol was added to each well for cell fixation, followed by drying in a draft for 30 min.
# In order to obtain a TRAP solution buffer at a concentration of 1.5 mg/mL, a solution was prepared by adjusting p-nitrophenyl phosphate (Nacalai) with 50 mM citric acid buffer and adding a 0.2 M sodium tartrate solution in a volume 1/10 that of citric acid buffer. The obtained TRAP solution buffer was added to each well in an amount of 100 μL followed by incubation at 37° C. for 45 min. Then, a 1N NaOH solution (50 μL) was added thereto to terminate the reaction. The OD value at 405 nm was determined for each well with a microplate reader (BMG Labtech) in the same manner as in Example 1.
# RAW264 cells mixed with 10% FBS+αMEM (SIGMA) were seeded on a 96-well plate (2×10^3 cells/well). After cell adhesion had taken place, the medium was replaced with 10% FBS+αMEM containing 5 nM GST-RANKL (Oriental Yeast Co., Ltd.). Peptide D in the form of TFA, peptide D in the form of acetate, and peptide D in the form of hydrochloride with concentrations of 25 and 100 μM were separately added thereto, followed by culture for 4 days. After the completion of culture, acetone/ethanol (100 μL) was added to each well for cell fixation, followed by drying in a draft for 30 min. TRAP activity determination was carried out by the method described in Example 16. […] Peptide D in the form of hydrochloride was confirmed to have neither osteoblast differentiation activity nor osteoclastgenesis inhibition activity. However, peptide D in the form of acetate was confirmed to have higher osteoblast differentiation activity and lower osteoclastgenesis inhibition activity compared with peptide D in the form of TFA. […] It is also possible to produce modified peptide D having osteoblast differentiation activity alone or modified peptide D having osteoclastgenesis inhibition activity alone.
# RANKL = target: T1, RANKL; conditions: Aoki et al., J Clin Invest 116: 1525, 2006; cited from earlier work
# C57BL/6N mice = experiment: RANKL administration test, bone morphology measurement; assay type: in vivo, mouse
# Method: GST-RANKL was intraperitoneally administered at 57 nmol (low dose) or at 426 nmol (high dose) to 7-week-old female C57BL/6N mice (10 individuals) every 24 hours for three times. The mice were dissected 1.5 hours after the third administration. For comparison, a group to which PBS had been administered was used as a control.
# The following organs were collected from each dissected mouse: femur, tibia, cerebrum, lungs, heart, liver, thymus, spleen, kidneys, and skin. Naturally occurring lesions were observed by HE staining of the cerebrum, the lungs, the heart, the liver, the thymus, the spleen, the kidneys, and the skin.
# [1] = compared at concentrations with almost comparable effects
# [2] = high dose 426 nmol i.p. every 24 hours, three times
molecule,measurement,setting,value
"Fc fusion peptide A: fusion protein of peptide A (SEQ ID NO: 47, YCAAAAACY) and Fc; negative control [reference compound]",ALP activity,"MC3T3-E1 cells; concentrated COS-1 culture supernatant diluted with αMEM, Day 5",such ALP activity enhancement action was not observed
"C[S+]([O-])c1ccc(-c2nc(-c3ccncc3)c(-c3ccc(F)cc3)[nH]2)cc1 (centres unmarked) [SB203580, reference compound]",inhibition of ALP activity enhancement caused by BMP-2,"MC3T3-E1 cells; SB203580 1 μM, 5 days",significant inhibition of ALP activity enhancement was not observed
same,inhibition of ALP activity enhancement caused by peptide D,"MC3T3-E1 cells; SB203580 1 μM, 5 days",Significant inhibition
same,inhibition of ALP activity enhancement caused by peptide D,"MC3T3-E1 cells; SB203580 10 μM, 5 days",complete inhibition
same,inhibition of ALP activity enhancement caused by BMP-2,"MC3T3-E1 cells; SB203580 at a concentration of 10, 5 days",weak effects of inhibition
"peptide E: SEQ ID NO: 16, prepared from peptide D with the substitution of a single amino acid; cyclic, Cys2-Cys8 disulfide (YCWSQNLCY; disulfide 2-8)",ALP activity,"MC3T3-E1 cells; 25, 50, 100 and 200 μM, 5 days",enhance ALP activity in a concentration-dependent manner
same,ALP activity enhancement actions relative to the initial level (peptide D),MC3T3-E1 cells; [1],approximately ¼
same,TRAP activity,"RAW264 cells; 25, 50, 100 and 200 μM, 10 nM GST-RANKL, 4 days",inhibit TRAP activity
same,TRAP activity inhibition actions relative to the initial level (peptide D),RAW264 cells; [1],one-half
same,affinity to sRANKL relative to the initial level (peptide D),RANKL,approximately ⅓
GST-RANKL: GST fusion protein with amino acids 140 to 317 of human RANKL (SEQ ID NO: 15),inhibition of synergistic ALP activity enhancement of peptide D (acetate) and BMP-2,"MC3T3-E1 cells; 100 nM, 100 μM peptide D acetate + 5 ng/mL BMP-2, Day 5",significantly inhibited synergistic effects
same,"HE staining of cerebrum, lungs, heart, liver, thymus, spleen, kidneys, skin","C57BL/6N mice; any group (57 nmol, 426 nmol)",abnormal findings and naturally occurring lesions were not observed
same,osteoclast number,C57BL/6N mice; [2],increased
same,trabecular number,C57BL/6N mice; [2],approximately 50%
same,unit bone mass,C57BL/6N mice; [2],approximately 50%
same,osteoblast surface area,C57BL/6N mice; high-dose administration,significantly increased
same,femur bone morphology by μCT,C57BL/6N mice; high-dose administration group,significant bone decrease
same,unit bone mass and trabecular number,"C57BL/6N mice; low dose 57 nmol i.p. every 24 hours, three times",no such decrease was observed
"Dkk-1: rhDkk-1 (R&D), Wnt antagonist (protein, UniProt O94907 32-266, looked up) Dickkopf-related protein 1: TLNSVLNSNAIKNLPPPLGGAAGHPGSAVSAAPGILYPGGNKYQTIDNYQPYPCAEDEECGTDEYCASPTRGGDAGVQICLACRKRRKRCMRHAMCCPGNYCKNGICVSSDQNHFRGEIEETITESFGNDHSTLDGYSRRTTLSSKMYHTKGQEGSVCLRSSDCASGLCCARHFWSKICKPVLKEGQVCTKHRRKGSHGLEIFQRCYCGEGLSCRIQKDHHQASNSSRLHTCQRH",inhibition of ALP activity enhancement caused by peptide D,"MC3T3-E1 cells; rhDkk-1 0.25, 0.5 and 1 μg/ml, 5 days",weakly but significantly inhibit
"BMPR-IA: BMPR-IA (R&D), BMP antagonist (protein, UniProt P36894 24-152, looked up, extracellular domain soluble reagent, BMPR-IA (R&D), BMP antagonist) extracellular domain: QNLDSMLHGTGMKSDSDQKKSENGVTLAPEDTLPFLKCYCSGHCPDDAINNTCITNGHCFAIIEEDDQGETTLASGCMKYEGSDFQCKDSPKAQLRRTIECCRTNLCNQYLQPTLPPVVIGPFFDGSIR",inhibition of ALP activity enhancement caused by peptide D and BMP-2,"MC3T3-E1 cells; BMPR-IA 0.25 and 1 μg/ml, 200 μM peptide D or 200 ng/ml BMP-2, 5 days",significantly inhibit
